Reference: PMC6212544, “Identification and Characterization of Novel CFTR Potentiators” (Frontiers in Pharmacology, 2018)

Assays:
Format in all cases: cell-based
[1] = target: F508del CFTR (Homo sapiens, UniProt P13569, DEL508-508); assay: YFP halide assay, CFBe41o- cells, low temperature rescued F508del CFTR; settings: 27°C 24 h, 10 μM forskolin, read-out: EC50, potentiation of low temperature rescued F508del CFTR
Experimental: CFBe41o- cells were plated in black 384-well microplates at a density of 1,500 cells per well. After 24 h, cells were transduced with adenoviruses containing F508del CFTR and YFP (H148Q/I152L/) F47L using a multiplicity of infection of 30 infectious units per cell for each adenovirus. The next day, for the low temperature corrected assay, cells were incubated at 27°C for 24 h, for the chemically corrected assay cells were treated with corrector for 24 h at 37°C. On the day of analysis, cells were washed five times with Dulbecco’s Phosphate-Buffered Saline (DPBS) containing Ca^2+ and Mg^2+ (Life Technologies) using a Microplate Washer (BioTek). Then, cells were treated with 10 μM forskolin and the desired concentration of potentiator in a volume of 30 μl and the plates were incubated at room temperature for 10 min, a timepoint optimized in previous experiments showing good window (positive control/negative control > 2) and signal to background ratio. The YFP fluorescence was recorded for 2 min, starting immediately before addition of 30 μl NaI buffer (375 mM NaI, 7.5 mM KI, 1.76 mM KH2PO4, 10.1 mM Na2HPO4, 13.75 mM glucose) to the wells, using a FDSS/μCell (Hamamatsu) fluorescence reader with a 480 nm excitation filter and a 540 nm emission filter. The capacity of potentiators to increase CFTR channel function was expressed as 1-[fluorescence 36 s after NaI addition (F)/fluorescence before NaI addition (F0)], a timepoint optimized previously, resulting in an optimal signal window. Data was normalized using the formula: normalized response = 100^∗ (absolute response – negative control response)/(VX770 response – negative response) as such, VX770 response corresponds to 100. For Dose-response experiments, data was fitted using a 4 parameter hill function of the form Response = Bottom + (Top-Bottom)/(1 + 10ˆ((LogEC50-concentration)^∗HillSlope)) to determine EC50 values.

[2] = target: T1, G178R CFTR (Homo sapiens, UniProt P13569, G178R); assay: YFP halide assay, HEK293 cells expressing G178R CFTR; settings: 10 μM forskolin, VX770 = 100
T1 construct: expressed in transfected cells; host or cells: HEK293, transient (jetPEI)
Experimental: (§1) HEK293 cells were transfected with 10–80 ng of plasmid encoding G551D, G178R, G1349D, S549N, R117H, R334W, or wild type CFTR and 20 ng of plasmid encoding YFP (H148Q/I152L/F47L) using jetPEI (Polyplus transfection). Directly after transfection, cells were seeded in black 96-well plates coated with Poly-D-lysine at a density of 70,000 cells per well. The next day, cells were incubated at 27°C for 24 h, for low temperature correction. When evaluating in a chronic setting, the potentiator concentration range was also added to the cells for 24 h. After this incubation period, cells were washed twice with DPBS with Ca^2+ and Mg^2+. Subsequently, cells were treated with 10 μM forskolin and the desired concentration of potentiator in a volume of 40 μl and incubated at room temperature for 10 min, a timepoint optimized in previous experiments resulting in a good window (positive control/negative control > 2) and signal to background ratio. YFP fluorescence was measured using an EnVision plate reader (PerkinElmer). […] The excitation wavelength was 485 nm and the emission wavelength 530 nm. The capacity of potentiators to increase CFTR channel function was expressed as 1-[fluorescence 7 s after NaI addition (F)/fluorescence before NaI addition (F0)]. […]

[3] = target: T2, G551D CFTR (Homo sapiens, UniProt P13569, G551D); assay: YFP halide assay, HEK293 cells expressing G551D CFTR; settings: for Efficacy on G551D CFTR relative to VX770: 10 μM forskolin, VX770 = 100; for Additive effect of GLPG1837 and GLPG2451 combined on G551D CFTR: 90 μM each, 1 μM forskolin; for Additive effect to VX770 on G551D CFTR: 90 μM potentiator plus 10 μM VX770, 1 μM forskolin
T2 construct: expressed in transfected cells; host or cells: HEK293, transient (jetPEI)
Experimental: HEK293 cells were transfected with 10–80 ng of plasmid encoding G551D, G178R, G1349D, S549N, R117H, R334W, or wild type CFTR and 20 ng of plasmid encoding YFP (H148Q/I152L/F47L) using jetPEI (Polyplus transfection). Directly after transfection, cells were seeded in black 96-well plates coated with Poly-D-lysine at a density of 70,000 cells per well. The next day, cells were incubated at 27°C for 24 h, for low temperature correction. When evaluating in a chronic setting, the potentiator concentration range was also added to the cells for 24 h. After this incubation period, cells were washed twice with DPBS with Ca^2+ and Mg^2+. Subsequently, […] of potentiator in a volume of 40 μl and incubated at room temperature for 10 min, a timepoint optimized in previous experiments resulting in a good window (positive control/negative control > 2) and signal to background ratio. YFP fluorescence was measured using an EnVision plate reader (PerkinElmer). […] The excitation wavelength was 485 nm and the emission wavelength 530 nm. The capacity of potentiators to increase CFTR channel function was expressed as 1-[fluorescence 7 s after NaI addition (F)/fluorescence before NaI addition (F0)]. Data was normalized using the formula: normalized response = 100^∗ (absolute response – negative control response)/(VX770 response – negative response) as such, VX770 response corresponds to 100. For Dose-response experiments, data was fitted using a 4 parameter hill function of the form Response = Bottom + (Top-Bottom)/(1 + 10ˆ((LogEC50-concentration)^∗HillSlope)) to determine EC50 values.

[4] = target: T3, R117H CFTR (Homo sapiens, UniProt P13569, R117H); assay: YFP halide assay, HEK293 cells expressing R117H CFTR; settings: 10 μM forskolin, VX770 = 100
T3 construct: expressed in transfected cells; host or cells: HEK293, transient (jetPEI)
Experimental: as §1

T2 sequence (P13569 whole entry G551D): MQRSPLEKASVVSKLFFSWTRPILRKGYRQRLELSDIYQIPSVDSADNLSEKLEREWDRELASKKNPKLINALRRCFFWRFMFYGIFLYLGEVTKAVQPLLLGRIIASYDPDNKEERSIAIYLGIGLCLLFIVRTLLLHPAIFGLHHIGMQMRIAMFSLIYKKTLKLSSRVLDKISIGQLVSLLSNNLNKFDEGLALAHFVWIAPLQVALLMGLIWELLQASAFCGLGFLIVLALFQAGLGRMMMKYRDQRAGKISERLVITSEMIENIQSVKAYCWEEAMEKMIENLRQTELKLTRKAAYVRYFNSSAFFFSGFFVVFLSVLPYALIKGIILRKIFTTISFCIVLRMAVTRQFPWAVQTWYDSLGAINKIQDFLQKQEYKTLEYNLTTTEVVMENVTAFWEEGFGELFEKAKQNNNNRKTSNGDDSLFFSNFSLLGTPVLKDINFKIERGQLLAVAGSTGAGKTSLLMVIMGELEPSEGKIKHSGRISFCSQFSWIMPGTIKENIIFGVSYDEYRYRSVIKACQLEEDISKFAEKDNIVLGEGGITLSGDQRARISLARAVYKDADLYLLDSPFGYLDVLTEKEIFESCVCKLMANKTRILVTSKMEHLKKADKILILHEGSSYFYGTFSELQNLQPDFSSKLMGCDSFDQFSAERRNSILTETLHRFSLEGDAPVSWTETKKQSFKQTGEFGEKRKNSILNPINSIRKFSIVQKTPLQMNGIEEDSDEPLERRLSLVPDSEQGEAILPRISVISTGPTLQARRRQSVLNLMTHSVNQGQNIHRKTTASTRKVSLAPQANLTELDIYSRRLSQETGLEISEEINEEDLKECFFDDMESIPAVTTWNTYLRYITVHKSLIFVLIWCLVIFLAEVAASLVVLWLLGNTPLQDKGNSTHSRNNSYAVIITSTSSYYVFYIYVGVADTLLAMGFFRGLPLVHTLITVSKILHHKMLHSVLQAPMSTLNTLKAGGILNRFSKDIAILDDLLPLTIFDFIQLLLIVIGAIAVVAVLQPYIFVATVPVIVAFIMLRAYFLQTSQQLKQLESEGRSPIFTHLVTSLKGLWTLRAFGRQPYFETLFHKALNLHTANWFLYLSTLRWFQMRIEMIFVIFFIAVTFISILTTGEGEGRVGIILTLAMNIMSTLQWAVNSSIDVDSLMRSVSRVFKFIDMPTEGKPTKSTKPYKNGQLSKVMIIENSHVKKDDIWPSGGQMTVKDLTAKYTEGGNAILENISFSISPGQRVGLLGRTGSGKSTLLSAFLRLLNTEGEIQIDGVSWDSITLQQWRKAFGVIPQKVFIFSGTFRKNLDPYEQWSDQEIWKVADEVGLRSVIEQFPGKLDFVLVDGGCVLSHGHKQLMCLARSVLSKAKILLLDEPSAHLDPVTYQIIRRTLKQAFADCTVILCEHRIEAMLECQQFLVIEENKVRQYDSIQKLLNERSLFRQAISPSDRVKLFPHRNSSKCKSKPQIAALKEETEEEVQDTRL
Chain of F508del CFTR (P13569 with tags, fused parts or gaps DEL508-508): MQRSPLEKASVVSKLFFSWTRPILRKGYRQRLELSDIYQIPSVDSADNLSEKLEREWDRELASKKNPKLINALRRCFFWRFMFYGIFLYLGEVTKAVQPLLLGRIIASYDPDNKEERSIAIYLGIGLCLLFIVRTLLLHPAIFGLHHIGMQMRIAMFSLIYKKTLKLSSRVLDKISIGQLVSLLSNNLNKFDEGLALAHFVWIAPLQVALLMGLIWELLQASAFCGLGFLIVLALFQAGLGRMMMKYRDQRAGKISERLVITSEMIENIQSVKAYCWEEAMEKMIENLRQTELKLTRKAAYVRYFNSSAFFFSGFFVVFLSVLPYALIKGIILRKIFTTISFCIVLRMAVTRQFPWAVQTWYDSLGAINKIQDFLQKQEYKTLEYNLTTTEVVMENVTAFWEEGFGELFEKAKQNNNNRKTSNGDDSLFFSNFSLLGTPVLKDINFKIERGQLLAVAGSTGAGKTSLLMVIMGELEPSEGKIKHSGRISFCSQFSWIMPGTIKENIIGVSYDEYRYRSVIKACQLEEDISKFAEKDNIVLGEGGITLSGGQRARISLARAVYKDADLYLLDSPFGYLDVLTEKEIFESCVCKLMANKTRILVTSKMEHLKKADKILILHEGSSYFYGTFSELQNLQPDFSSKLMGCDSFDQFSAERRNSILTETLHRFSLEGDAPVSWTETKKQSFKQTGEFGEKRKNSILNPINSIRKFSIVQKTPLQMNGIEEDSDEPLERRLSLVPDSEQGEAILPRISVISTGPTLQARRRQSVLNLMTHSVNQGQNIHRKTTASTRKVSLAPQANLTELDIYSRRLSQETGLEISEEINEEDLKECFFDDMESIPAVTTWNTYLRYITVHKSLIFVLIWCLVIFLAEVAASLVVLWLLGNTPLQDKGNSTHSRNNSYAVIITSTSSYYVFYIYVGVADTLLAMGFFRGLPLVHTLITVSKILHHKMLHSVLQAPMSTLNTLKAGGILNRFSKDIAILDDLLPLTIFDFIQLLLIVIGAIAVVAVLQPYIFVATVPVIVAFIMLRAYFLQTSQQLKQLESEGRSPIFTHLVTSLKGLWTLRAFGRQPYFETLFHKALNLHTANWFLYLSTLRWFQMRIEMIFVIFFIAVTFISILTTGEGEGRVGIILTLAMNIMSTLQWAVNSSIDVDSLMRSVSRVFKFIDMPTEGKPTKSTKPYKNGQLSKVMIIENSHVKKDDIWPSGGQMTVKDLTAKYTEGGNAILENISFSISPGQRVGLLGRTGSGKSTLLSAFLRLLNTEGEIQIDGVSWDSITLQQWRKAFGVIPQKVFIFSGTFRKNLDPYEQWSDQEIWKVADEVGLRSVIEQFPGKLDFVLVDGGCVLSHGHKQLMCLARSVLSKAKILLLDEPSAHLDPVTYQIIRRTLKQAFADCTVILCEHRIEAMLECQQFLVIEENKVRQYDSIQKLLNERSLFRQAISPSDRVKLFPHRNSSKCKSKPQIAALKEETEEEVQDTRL
T3 sequence (P13569 whole entry R117H): as the sequence (P13569 whole entry G551D) above, with R117H, D551G counted along it
T1 sequence (P13569 whole entry G178R): as the sequence (P13569 whole entry G551D) above, with G178R, D551G counted along it

Compound | EC50 [1] | Efficacy on G178R CFTR relative to VX770 [2] | Efficacy on G551D CFTR relative to VX770 [3] | Additive effect of GLPG1837 and GLPG2451 combined on G551D CFTR [3] | Additive effect to VX770 on G551D CFTR [3] | Efficacy on R117H CFTR relative to VX770 [4]
CC1(C)Cc2c(sc(NC(=O)c3ccn[nH]3)c2C(N)=O)C(C)(C)O1 [GLPG1837, N-(3-Carbamoyl-5,5,7,7-tetramethyl-5,7-dihydro-4H-thieno[2,3-c]pyran-2-yl)-lH-pyrazole-5-carboxamide] | 3.5 ± 0.2 nM | 154% | 260% | failed to show any additive effect | didn’t show any additive effect | 120%
C[C@H](O)CNC(=O)c1ncc(S(=O)(=O)c2ccc(OC(F)(F)F)cc2)cc1N [GLPG2451] | 11.1 ± 3.6 nM | 106% | 171% | failed to show any additive effect | didn’t show any additive effect | 105%
